Test results taken from PubChem BioAssay (NCI).
Where “and” joins values, the source holds several entries; their conditions need not be identical. Equal entries are not always repeated.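 Grown in 96-well plates, cells were treated for 48 hours with each compound at five concentrations. Insufficient inhibition: endpoint recorded as highest concentration tested. The concentration for 50% growth inhibition is given as GI50. Definition used: TGI = concentration required for complete inhibition of growth.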

Legend:
Test in all cases: inhibition of tumour cell growth, NCI panel, 48 h
HOP-92 NSCLC = system: HOP-92 NSCLC
HCC-2998 colon = system: HCC-2998 colon
MCF7 breast = system: MCF7 breast
CCRF-CEM leukemia = system: CCRF-CEM leukemia
SN12C renal = system: SN12C renal
DU-145 prostate = system: DU-145 prostate
NCI-H522 lung = system: NCI-H522 lung
NCI-H460 lung = system: NCI-H460 lung
LOX IMVI melanoma = system: LOX IMVI melanoma
RPMI-8226 leukemia = system: RPMI-8226 leukemia

| SMILES | GI50 (HOP-92 NSCLC) [µM] | TGI (HOP-92 NSCLC) | GI50 (HCC-2998 colon) [µM] | TGI (HCC-2998 colon) [µM] | GI50 (MCF7 breast) [µM] | TGI (MCF7 breast) [µM] | GI50 (CCRF-CEM leukemia) [µM] | TGI (CCRF-CEM leukemia) | GI50 (SN12C renal) [µM] | TGI (SN12C renal) | GI50 (DU-145 prostate) [µM] | TGI (DU-145 prostate) [µM] | GI50 (NCI-H522 lung) [nM] | TGI (NCI-H522 lung) [µM] | GI50 (NCI-H460 lung) [µM] | TGI (NCI-H460 lung) [µM] | GI50 (LOX IMVI melanoma) [µM] | TGI (LOX IMVI melanoma) [µM] | GI50 (RPMI-8226 leukemia) [µM] | TGI (RPMI-8226 leukemia) [µM] |
| --- | --- | --- | --- | --- | --- | --- | --- | --- | --- | --- | --- | --- | --- | --- | --- | --- | --- | --- | --- | --- |
| C=CCN=c1sc2c(n1NC(=O)c1cc3ccc1CCc1ccc(cc1)CC3)C(=O)c1ccccc1C2=O | 1.56 | 4.19 µM | 1.62 | 3.14 | 1.23 | 3.36 | 2.39 | > 100 µM | 1.22 | 2.79 µM | 1.85 | 3.45 | 1490 | 4.19 | 1.94 | 3.97 | 0.532 | 2.1 |  |  |
| CC(=O)NC1C(OC[C@@H](CC(=O)N[C@@H](CC(=O)O)CC(=O)N[C@H](CC(=O)N[C@@H](CCCN)CC(=O)N[C@@H](CCCN)CC(=O)N[C@H](CC(N)=O)C(C)C)C(C)C)NC(=O)C[C@@H](N)C(C)C)OC(CO)C(O)C1O (some centres undefined) | > 100 | > 100 µM | > 100 | > 100 | > 100 | > 100 | > 100 | > 100 µM | > 100 | > 100 µM | > 100 | > 100 | > 100000 | > 100 | > 100 | > 100 | > 100 | > 100 | > 100 | > 100 |
| C=C1C(=O)O[C@H]2[C@H]1CC/C(CNC(=O)/C=C/c1cc(OC)c(OC)c(OC)c1)=C\CC[C@@]1(C)O[C@@H]21 | 0.257 | 5.44 µM | 2.95 | 6.97 | 0.531 | 10.8 | 0.478 | 4.37 µM | 3.46 | 14.3 µM | 4.95 | 17.3 | 232 | 1.1 | 9.19 | 24.5 | 1.28 | 2.63 | 1.59 | 5.47 |
| N#CC1(C#N)C2(c3ccccc3)OC(c3ccccc3)(c3cc4ccccc4cc32)C1(C#N)C#N |  | 7.05 µM |  | 33.8 |  | 27.8 |  | 3.29 µM |  | 36.2 µM |  | 28.5 |  | 8.43 |  | 41.7 |  | 11.1 |  | 5.34 |
| CCCCON(OC(=O)c1ccc2ccccc2c1)C(=O)c1ccccc1 | 44.8 | > 100 µM | > 100 | > 100 | 60.1 | > 100 | 21.4 | 57.3 µM | > 100 | > 100 µM | > 100 | > 100 | 63000 | > 100 | > 100 | > 100 | 25.3 | 72 | 74.2 | > 100 |
| C[C@]12CC[C@@H]3c4ccc(OC(=O)N(CCCl)CCCl)cc4CC[C@H]3[C@@H]1CC[C@@H]2O | 9.04 | 43.2 µM and 6.51 µM | 1.56 | 5.16 | 1.08 |  | 1.21 | 6.83 µM and 3.45 µM | 3.37 | 17.4 µM and 3.48 µM | 2.53 | 8.63 | 2530 | 15.2 | 2.75 | 12.9 | 2.43 | 14.3 | 1.62 | 5.42 |
| CCOC(=O)c1c(C)nc2c(c1N)CC(=O)N2Cc1ccc(OC)cc1 | 2.29 | 6.5 µM | > 100 | > 100 | > 100 | > 100 | > 100 | > 100 µM | > 100 | > 100 µM | > 100 | > 100 | > 100000 | > 100 |  |  | > 100 | > 100 | > 100 | > 100 |
| COC(=O)c1ccc(-c2nc3cc(Cl)c(Cl)cc3nc2C#N)cc1 | 79 | > 100 µM | > 100 | > 100 | > 100 | > 100 | 31.6 | > 100 µM | > 100 | > 100 µM | > 100 | > 100 | > 100000 | > 100 | > 100 | > 100 | > 100 | > 100 |  |  |
| COc1ccc(C(=S)N2CCN(c3cccc(C)c3)CC2)cc1OC | 10.5 | 91.4 µM | 5.41 | > 100 | 3.06 | > 100 | > 100 | > 100 µM | 6.85 | > 100 µM | 4.59 | > 100 |  |  | 3.38 | > 100 | 5.46 | > 100 |  |  |
